From patent US11254651B2, “Histone methyltransferase inhibitors” (GLOBAL BLOOD THERAPEUTICS, INC., priority 2016, dated 2022)
Structures can show the parent of a compound that is named as a salt.

Biological target: T1, G9a (Homo sapiens, UniProt Q96KQ7)
T1 sequence (Q96KQ7 1-1210): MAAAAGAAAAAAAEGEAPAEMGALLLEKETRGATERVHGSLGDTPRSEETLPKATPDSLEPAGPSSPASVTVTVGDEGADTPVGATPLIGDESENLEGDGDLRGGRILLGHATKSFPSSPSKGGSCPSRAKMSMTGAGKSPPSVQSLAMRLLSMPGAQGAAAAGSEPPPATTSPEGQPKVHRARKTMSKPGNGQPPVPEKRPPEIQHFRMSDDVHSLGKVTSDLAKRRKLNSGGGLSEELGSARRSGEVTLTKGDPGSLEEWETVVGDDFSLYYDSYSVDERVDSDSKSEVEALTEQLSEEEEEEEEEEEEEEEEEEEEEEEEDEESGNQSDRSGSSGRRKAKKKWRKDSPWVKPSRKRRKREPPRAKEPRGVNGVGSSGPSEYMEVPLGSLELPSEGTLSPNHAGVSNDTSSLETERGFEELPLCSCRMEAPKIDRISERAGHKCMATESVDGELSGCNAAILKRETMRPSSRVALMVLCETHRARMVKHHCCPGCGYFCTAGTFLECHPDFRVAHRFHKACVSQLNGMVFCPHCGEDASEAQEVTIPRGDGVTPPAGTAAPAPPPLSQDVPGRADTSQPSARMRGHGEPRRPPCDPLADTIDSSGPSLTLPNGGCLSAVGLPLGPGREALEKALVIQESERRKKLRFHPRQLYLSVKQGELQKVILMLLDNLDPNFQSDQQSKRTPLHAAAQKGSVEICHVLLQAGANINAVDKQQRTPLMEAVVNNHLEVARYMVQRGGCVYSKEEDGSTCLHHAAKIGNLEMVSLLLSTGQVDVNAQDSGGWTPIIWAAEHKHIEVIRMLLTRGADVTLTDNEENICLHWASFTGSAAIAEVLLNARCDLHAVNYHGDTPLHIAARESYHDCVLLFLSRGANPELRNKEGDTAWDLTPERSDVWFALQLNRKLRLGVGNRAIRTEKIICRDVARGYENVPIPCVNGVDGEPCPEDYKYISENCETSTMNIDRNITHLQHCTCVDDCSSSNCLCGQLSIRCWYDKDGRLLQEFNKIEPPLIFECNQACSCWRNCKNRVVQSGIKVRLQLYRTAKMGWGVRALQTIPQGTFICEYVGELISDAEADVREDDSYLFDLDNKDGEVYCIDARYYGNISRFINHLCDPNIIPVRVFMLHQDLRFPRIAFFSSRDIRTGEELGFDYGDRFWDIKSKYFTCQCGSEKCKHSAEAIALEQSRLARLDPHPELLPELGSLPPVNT
Assay: G9a AlphaLISA enzymatic activity assay
Type: biochemical
Settings: 0.15 nM G9a, 15 uM S-adenosyl-methionine, 100 nM biotinylated histone 3 peptide (1-21), 1 hour room temperature
Text: The G9a AlphaLISA assay was used to detect the methyl modifications of a biotinylated histone H3 peptide by the compounds. These modifications are done by the histone methyl transferase activity of the G9a enzyme. The assay consists of reading a chemiluminescent signal at 615 nm; this signal is generated by a laser excitation at 680 nm that transfers a reactive singlet oxygen between the donor beads and acceptor beads. Donor beads are streptavidin conjugated and bind to the biotin on the peptide. Acceptor beads are conjugated with an antibody that recognizes the specific G9a methyl mark on the peptide. If there is a methyl mark on the peptide, the acceptor beads will bind to the peptide. Upon binding, the acceptor beads will be in close proximity (<200 nm) of the donor beads and when the donor beads are excited, the transfer of the oxygen can occur and a strong signal will be generated. If there is no methyl mark, the interaction between beads will not occur and signal will be at background levels.
For the assay, the following buffer was used to set up reactions: 50 mM Tris-HCl pH9, 50 mM NaCl, 0.01% Tween-20 and 1 mM DTT (added fresh prior to starting the reactions). The assay is set up by adding a final concentration of 0.15 nM G9a, 15 uM S-adenosyl-methionine and, 100 nM biotinylated histone 3 peptide (1-21). The reaction is incubated at room temperature for 1 hour, and subsequently quenched by the addition of the acceptor beads (anti-H3k9me2 AlphaLISA acceptor beads, PerkinElmer #AL117) at a final concentration of 20 ug/mL. The acceptor beads are incubated for 1 hour. After 1 hour, the donor beads are added at a final concentration of 20 ug/mL (Alpha Streptavidin donor beads, PerkinElmer #6760002). Donor beads are incubated for 0.5 hours. Both donor and acceptor beads are resuspended in AlphaLISA 5X Epigenetics Buffer 1 Kit (PerkinElmer #AL008) prior to addition to the reaction. All manipulations and incubations with the donor and acceptor beads are done in subdued light. Signal is detected in an EnVision plate reader in Alpha mode (see ACS Med Chem Lett. 2014 Jan. 2; 5(2):205-9. doi: 10.1021/m1400496h. eCollection 2014. Discovery and development of potent and selective inhibitors of histone methyltransferase g9a.)
Percent inhibition was calculated for each compound dilution and the concentration that produced 50% inhibition was calculated. This value is presented as the IC50.

IC50 [nM]	SMILES
60.1	COc1cc2c(NCc3ccccn3)c3c(nc2cc1OCCCN1CCCC1)CCC3 [Entry 54, 7-methoxy-N-[pyridin-2-yl)methyl]-6-[3-(pyrrolidin-1-yl)propoxy]-1H,2H,3H-cyclopenta[b]quinolin-9-amine formate]
42	COc1cc2c(O)c3ccccc3nc2cc1OCCCN1CCCC1 [Entry 6, 2-methoxy-3-[3-(pyrrolidin-1-yl)propoxy]acridin-9-ol formate]
21.6	COc1cc2c(NC3CC(C)OC(C)C3)c3c(nc2cc1OCCCN1CCCC1)CCC3 (stereo not shown) [Entry 53, N-(2,6-dimethyloxan-4-yl)-7-methoxy-6-[3-(pyrrolidin-1-yl)propoxy]-1H,2H,3H-cyclopenta[b]quinolin-9-amine formate]
19	COc1cc2c(NCC3(C)CC3)c3c(nc2cc1OCCCN1CCCC1)CCC3 [Entry 44, 7-methoxy-N-[(1-methylcyclopropyl)methyl]-6-[3-(pyrrolidin-1-yl)propoxy]-1H,2H,3H-cyclopenta[b]quinolin-9-amine formate]
1230	CNc1c2ccccc2nc2cc(OCCCN3CCCC3)c(C)cc12 [Entry 11, N,2-dimethyl-3-[3-(pyrrolidin-1-yl)propoxy]acridin-9-amine formate]
11.2	COCCCNc1c2c(nc3cc(OCCCN4CCCC4)c(OC)cc13)CCC2 [Entry 73, 7-methoxy-N-(3-methoxypropyl)-6-[3-(pyrrolidin-1-yl)propoxy]-1H,2H,3H-cyclopenta[b]quinolin-9-amine formate]
14.6	COc1cc2c(NC3CNC(=O)C3)c3c(nc2cc1OCCCN1CCCC1)CCC3 (stereo not shown) [Entry 60, 4-({7-methoxy-6-[3-(pyrrolidin-1-yl)propoxy]-1H,2H,3H-cyclopenta[b]quinolin-9-yl}amino)pyrrolidin-2-one trifluoroacetate]
4.4	COc1cc2c(NC3CCOCC3)c3ccccc3nc2cc1OCCCN1CCCC1 [Entry 3, 2-methoxy-N-(oxan-4-yl)-3-[3-(pyrrolidin-1-yl)propoxy]-acridin-9-amine trifluoroacetate]
11	COc1cc2c(NC3CCN(C(C)C)CC3)c3c(nc2cc1OCCCN1CCCC1)CCCC3 [Entry 16, 7-methoxy-N-[1-(propan-2-yl)piperidin-4-yl]-6-[3-(pyrrolidin-1-yl)propoxy]-1,2,3,4-tetrahydroacridin-9-amine trifluoroacetate]
23.8	COc1cc2c(NC(C)C)c3ncccc3nc2cc1OCCCN1CCCC1 [Entry 122, 8-methoxy-N-(propan-2-yl)-7-[3-(pyrrolidin-1-yl)propoxy]benzo[b]1,5-naphthyridin-10-amine formate]
150	COc1cc2c(Nc3ccccn3)c3c(nc2cc1OCCCN1CCCC1)CCC3 [Entry 40, N-{7-methoxy-6-[3-(pyrrolidin-1-yl)propoxy]-1H,2H,3H-cyclopenta[b]quinolin-9-yl}pyridin-2-amine formate]
20.6	COC(=O)CNc1c2ccccc2nc2cc(OCCCN3CCCC3)c(OC)cc12 [Entry 105, methyl 2-({2-methoxy-3-[3-(pyrrolidin-1-yl)propoxy]acridin-9-yl}amino)acetate formate]
26	COc1cc2c(NCC(F)(F)F)c3c(nc2cc1OCCCN1CCCC1)CCC3 [Entry 50, 7-methoxy-6-[3-(pyrrolidin-1-yl)propoxy]-N-(2,2,2-trifluoroethyl)-1H,2H,3H-cyclopenta[b]quinolin-9-amine trifluoroacetate]
10	COc1cc2c(NC(C)C)c3c(nc2cc1OCCCN1CCCC1)CCC3 [Entry 19, 7-methoxy-N-(propan-2-yl)-6-[3-(pyrrolidin-1-yl)propoxy]-1H,2H,3H-cyclopenta[b]quinolin-9-amine formate]
17.5	COc1cc2c(NC3CC3)c3c(nc2cc1OCCCN1CCCC1)CCC3 [Entry 31, N-cyclopropyl-7-methoxy-6-[3-(pyrrolidin-1-yl)propoxy]-1H,2H,3H-cyclopenta[b]quinolin-9-amine trifluoroacetate]
35.8	COc1cc2c(Nc3ccn(C)n3)c3c(nc2cc1OCCCN1CCCC1)CCC3 [Entry 70, N-{7-methoxy-6-[3-(pyrrolidin-1-yl)propoxy]-1H,2H,3H-cyclopenta[b]quinolin-9-yl}-1-methyl-1H-pyrazol-3-amine formate]
26.1	CNc1c2ccccc2nc2cc(OCCCN3CCCC3)c(Cl)cc12 [Entry 9, 2-chloro-N-methyl-3-[3-(pyrrolidin-1-yl)propoxy]acridin-9-amine formate]
33.1	COc1cc2c(N[C@H]3C[C@@H](O)C3)c3c(nc2cc1OCCCN1CCCC1)CCC3 [Entry 57, (1s,3s)-3-({7-methoxy-6-[3-(pyrrolidin-1-yl)propoxy]-1H,2H,3H-cyclopenta[b]quinolin-9-yl}amino)cyclobutan-1-ol formate]
16	COCCNc1c2c(nc3cc(OCCCN4CCCC4)c(OC)cc13)CCC2 [Entry 38, 7-methoxy-N-(2-methoxyethyl)-6-[3-(pyrrolidin-1-yl)propoxy]-1H,2H,3H-cyclopenta[b]quinolin-9-amine formate]
139	CNc1c2ccccc2nc2cc(OCCCN3CCC(F)C3)c(OC)cc12 (stereo not shown) [Entry 117, 3-[3-(3-fluoropyrrolidin-1-yl)propoxy]-2-methoxy-N-methylacridin-9-amine formate]

SMILES	IC50 [nM]
COc1cc2c(NCCO)c3c(nc2cc1OCCCN1CCCC1)CCC3 [Entry 34, 2-({7-methoxy-6-[3-(pyrrolidin-1-yl)propoxy]-1H,2H,3H-cyclopenta[b]quinolin-9-yl}amino)ethan-1-ol formate]	7.6
COc1cc2c(NCC(C)(C)O)c3cccnc3nc2cc1OCCCN1CCCC1 [Entry 123, 1-({7-methoxy-8-[3-(pyrrolidin-1-yl)propoxy]benzo[b]1,8-naphthyridin-5-yl}amino)-2-methylpropan-2-ol formate]	251
